Measurements taken from patent publication US20040063156A1, “Materials and methods relating to the diagnosis and treatment of diabetes and obesity” (Rodaris Pharmaceuticals Limited, priority 1996, published 2004).

Assay: Urinary excretion of IPG P-type in diabetic patients treated with metformin
Assay type: in vivo, human
Conditions: overweight/obese NIDDM patients on metformin, urine, FIGS. 5A,B
Description: A cross-sectional study was undertaken with random spot samples collected at outpatients clinics. The patients included NIDDM subjects controlled by diet alone, by sulphonylureas, by metformin, by insulin or a combination of any of these treatments. Only a limited number of IDDM subjects were available. In the present survey, male subjects were used, this avoided complications arising from varying hormone profiles in women of different ages, in particular with or without HRT or contraceptive pills. […] In addition to the measurement of IPG P-type and IPG A-type in urine the following clinical data was made available: […]

CN(C)C(=N)N=C(N)N [metformin]
effect on pattern of excretion of IPG P-type: fails to restore the pattern of excretion of IPG P-type to normal
